From ChEMBL document CHEMBL1201862, “PubChem BioAssay data set” (2004)
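A five-concentration, 48-hour dose response in 96-well plates underlies each endpoint, interpolated linearly between surrounding concentrations. Abbreviation: GI50, concentration required for 50% inhibition of growth.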 Active and inactive are the calls of the source. Cut-off read from the data, not from the text of the source: active = GI50 up to about 1.1 µM and inactive = higher.

Key:
Assay in all cases: inhibition of tumour cell growth, NCI panel, 48 h
NCI-H23 = test system: NCI-H23
SK-MEL-28 = test system: SK-MEL-28
CAKI-1 = test system: CAKI-1
HOP-62 = test system: HOP-62
A549 = test system: A549
MDA-N = test system: MDA-N
SNB-75 = test system: SNB-75
M14 = test system: M14
MDA-MB-435 = test system: MDA-MB-435
SN12C = test system: SN12C
K562 = test system: K562
NCI-H226 = test system: NCI-H226
SW-620 = test system: SW-620
OVCAR-4 = test system: OVCAR-4
UO-31 = test system: UO-31
Malme-3M = test system: Malme-3M
SK-MEL-2 = test system: SK-MEL-2
BT-549 = test system: BT-549
SK-MEL-5 = test system: SK-MEL-5
HL-60 = test system: HL-60
SF-268 = test system: SF-268
DU-145 = test system: DU-145
U-251 = test system: U-251
ACHN = test system: ACHN
HCC 2998 = test system: HCC 2998
RPMI-8226 = test system: RPMI-8226
SNB-19 = test system: SNB-19
PC-3 = test system: PC-3
LOX IMVI = test system: LOX IMVI
T47D = test system: T47D
SR = test system: SR
HCT-116 = test system: HCT-116
MDA-MB-231 = test system: MDA-MB-231
MCF7 = test system: MCF7
MOLT-4 = test system: MOLT-4
HCT-15 = test system: HCT-15
UACC-62 = test system: UACC-62
HT-29 = test system: HT-29
IGROV-1 = test system: IGROV-1
786-0 = test system: 786-0
NCI-H460 = test system: NCI-H460
A498 = test system: A498
OVCAR-8 = test system: OVCAR-8
UACC-257 = test system: UACC-257
TK-10 = test system: TK-10
NCI-H522 = test system: NCI-H522
OVCAR-3 = test system: OVCAR-3
CCRF-CEM = test system: CCRF-CEM
OVCAR-5 = test system: OVCAR-5
SF-295 = test system: SF-295
NCI/ADR-RES = test system: NCI/ADR-RES
Hs-578T = test system: Hs-578T
KM12 = test system: KM12
HOP-92 = test system: HOP-92
RXF 393 = test system: RXF 393
EKVX = test system: EKVX
SK-OV-3 = test system: SK-OV-3
SF-539 = test system: SF-539
COLO 205 = test system: COLO 205

SMILES: CCc1ccccc1/N=N/C(=O)NNc1ccccc1CC
- GI50 (NCI-H23): 19.9 µM (inactive)
- GI50 (SK-MEL-28): 17.7 µM (inactive)
- GI50 (CAKI-1): 27.9 µM (inactive)
- GI50 (HOP-62): 15.8 µM (inactive)
- GI50 (A549): 14.9 µM (inactive)
- GI50 (MDA-N): 18.3 µM (inactive)
- GI50 (SNB-75): 19.4 µM (inactive)
- GI50 (M14): 16.9 µM (inactive)
- GI50 (MDA-MB-435): 24.4 µM (inactive)
- GI50 (SN12C): 18.5 µM (inactive)
- GI50 (K562): 26.1 µM (inactive)
- GI50 (NCI-H226): 17.5 µM (inactive)
- GI50 (SW-620): 17.1 µM (inactive)
- GI50 (OVCAR-4): 24 µM (inactive)
- GI50 (UO-31): 17.3 µM (inactive)
- GI50 (Malme-3M): 17.6 µM (inactive)
- GI50 (SK-MEL-2): 17.5 µM (inactive)
- GI50 (BT-549): 18.4 µM (inactive)
- GI50 (SK-MEL-5): 15 µM (inactive)
- GI50 (HL-60): 23.2 µM (inactive)
- GI50 (SF-268): 17.3 µM (inactive)
- GI50 (DU-145): 14.9 µM (inactive)
- GI50 (U-251): 16.1 µM (inactive)
- GI50 (ACHN): 19.8 µM (inactive)
- GI50 (HCC 2998): 15.7 µM (inactive)
- GI50 (RPMI-8226): 22.2 µM (inactive)
- GI50 (SNB-19): 25.8 µM (inactive)
- GI50 (PC-3): 16.4 µM (inactive)
- GI50 (LOX IMVI): 18.5 µM (inactive)
- GI50 (T47D): 6.78 µM (inactive)
- GI50 (SR): 23.2 µM (inactive)
- GI50 (HCT-116): 15.3 µM (inactive)
- GI50 (MDA-MB-231): 21.3 µM (inactive)
- GI50 (MCF7): 19.2 µM (inactive)
- GI50 (MOLT-4): 19.4 µM (inactive)
- GI50 (HCT-15): 18.5 µM
- GI50 (UACC-62): 10.3 µM (inactive)
- GI50 (HT-29): 24 µM (inactive)
- GI50 (IGROV-1): 11 µM (inactive)
- GI50 (786-0): 17.6 µM (inactive)
- GI50 (NCI-H460): 18 µM (inactive)
- GI50 (A498): 18.7 µM (inactive)
- GI50 (OVCAR-8): 15.2 µM (inactive)
- GI50 (UACC-257): 18.9 µM (inactive)
- GI50 (TK-10): 22.1 µM (inactive)
- GI50 (NCI-H522): 19.7 µM (inactive)
- GI50 (OVCAR-3): 18.7 µM (inactive)
- GI50 (CCRF-CEM): 25.3 µM (inactive)
- GI50 (OVCAR-5): 14.9 µM (inactive)

SMILES: c1ccc2sc(SCN(C3CCCCC3)C3CCCCC3)nc2c1
- GI50 (NCI-H23): > 100 µM (inactive)
- GI50 (SK-MEL-28): > 100 µM (inactive)
- GI50 (SF-295): > 100 µM (inactive)
- GI50 (CAKI-1): > 100 µM (inactive)
- GI50 (HOP-62): > 100 µM (inactive)
- GI50 (A549): > 100 µM (inactive)
- GI50 (M14): > 100 µM (inactive)
- GI50 (NCI/ADR-RES): > 100 µM (inactive)
- GI50 (MDA-MB-435): > 100 µM (inactive)
- GI50 (Hs-578T): > 100 µM (inactive)
- GI50 (K562): > 100 µM (inactive)
- GI50 (NCI-H226): > 100 µM (inactive)
- GI50 (SW-620): > 100 µM (inactive)
- GI50 (KM12): > 100 µM (inactive)
- GI50 (OVCAR-4): > 100 µM (inactive)
- GI50 (UO-31): > 100 µM (inactive)
- GI50 (Malme-3M): > 100 µM (inactive)
- GI50 (SK-MEL-2): > 100 µM (inactive)
- GI50 (BT-549): > 100 µM (inactive)
- GI50 (SK-MEL-5): > 100 µM (inactive)
- GI50 (SF-268): > 100 µM (inactive)
- GI50 (DU-145): > 100 µM (inactive)
- GI50 (U-251): > 100 µM (inactive)
- GI50 (ACHN): > 100 µM (inactive)
- GI50 (HCC 2998): > 100 µM (inactive)
- GI50 (HOP-92): > 100 µM (inactive)
- GI50 (SNB-19): > 100 µM (inactive)
- GI50 (PC-3): > 100 µM (inactive)
- GI50 (LOX IMVI): > 100 µM (inactive)
- GI50 (T47D): 15.1 µM (inactive)
- GI50 (SR): > 100 µM (inactive)
- GI50 (MDA-MB-231): > 100 µM (inactive)
- GI50 (MOLT-4): > 100 µM (inactive)
- GI50 (RXF 393): > 100 µM (inactive)
- GI50 (HCT-15): > 100 µM
- GI50 (EKVX): > 100 µM (inactive)
- GI50 (UACC-62): > 100 µM (inactive)
- GI50 (HT-29): > 100 µM (inactive)
- GI50 (IGROV-1): > 100 µM (inactive)
- GI50 (NCI-H460): > 100 µM (inactive)
- GI50 (A498): > 100 µM (inactive)
- GI50 (OVCAR-8): > 100 µM (inactive)
- GI50 (UACC-257): > 100 µM (inactive)
- GI50 (TK-10): > 100 µM (inactive)
- GI50 (NCI-H522): > 100 µM (inactive)
- GI50 (OVCAR-3): > 100 µM (inactive)
- GI50 (OVCAR-5): > 100 µM (inactive)

SMILES: COc1cc(C2SCC(=O)N2NC(=O)c2ccc(NC(C)=O)cc2)cc(OC)c1OC (configuration not stated)
- GI50 (NCI-H23): > 100 µM (inactive)
- GI50 (SK-MEL-28): > 100 µM (inactive)
- GI50 (SF-295): > 100 µM (inactive)
- GI50 (SK-OV-3): > 100 µM (inactive)
- GI50 (HOP-62): > 100 µM (inactive)
- GI50 (SF-539): > 100 µM (inactive)
- GI50 (A549): > 100 µM (inactive)
- GI50 (SNB-75): > 100 µM (inactive)
- GI50 (M14): > 100 µM (inactive)
- GI50 (COLO 205): > 100 µM (inactive)
- GI50 (NCI/ADR-RES): > 100 µM (inactive)
- GI50 (MDA-MB-435): > 100 µM (inactive)
- GI50 (SN12C): > 100 µM (inactive)
- GI50 (Hs-578T): > 100 µM (inactive)
- GI50 (K562): 35.8 µM (inactive)
- GI50 (NCI-H226): > 100 µM (inactive)
- GI50 (SW-620): > 100 µM (inactive)
- GI50 (KM12): > 100 µM (inactive)
- GI50 (OVCAR-4): > 100 µM (inactive)
- GI50 (UO-31): > 100 µM (inactive)
- GI50 (SK-MEL-2): > 100 µM (inactive)
- GI50 (BT-549): > 100 µM (inactive)
- GI50 (SK-MEL-5): > 100 µM (inactive)
- GI50 (HL-60): > 100 µM (inactive)
- GI50 (SF-268): > 100 µM (inactive)
- GI50 (DU-145): > 100 µM (inactive)
- GI50 (U-251): > 100 µM (inactive)
- GI50 (ACHN): > 100 µM (inactive)
- GI50 (HCC 2998): > 100 µM (inactive)
- GI50 (RPMI-8226): > 100 µM (inactive)
- GI50 (HOP-92): > 100 µM (inactive)
- GI50 (SNB-19): > 100 µM (inactive)
- GI50 (T47D): > 100 µM (inactive)
- GI50 (HCT-116): > 100 µM (inactive)
- GI50 (MDA-MB-231): > 100 µM (inactive)
- GI50 (MCF7): > 100 µM (inactive)
- GI50 (MOLT-4): > 100 µM (inactive)
- GI50 (RXF 393): > 100 µM (inactive)
- GI50 (HCT-15): > 100 µM
- GI50 (EKVX): > 100 µM (inactive)
- GI50 (UACC-62): > 100 µM (inactive)
- GI50 (HT-29): > 100 µM (inactive)
- GI50 (IGROV-1): > 100 µM (inactive)
- GI50 (786-0): > 100 µM (inactive)
- GI50 (NCI-H460): > 100 µM (inactive)
- GI50 (A498): > 100 µM (inactive)
- GI50 (OVCAR-8): > 100 µM (inactive)
- GI50 (UACC-257): > 100 µM (inactive)
- GI50 (TK-10): > 100 µM (inactive)
- GI50 (OVCAR-3): > 100 µM (inactive)
- GI50 (OVCAR-5): > 100 µM (inactive)
